In US4642332A, “Effective hormonal peptides: D-3-Pal^6 -LHRH” (The Board of Regents, The University of Texas System, priority 1985, dated 1987):

What was measured:
[1] = system: advanced prostatic carcinoma; set-up: clinical effect in patients with urinary obstruction: dose or concentration left out as unconfirmed; settings: subcutaneously, cited from earlier work
men = settings: in men, after chronic administration; cited from earlier work
21 day old female rats = assay: In vivo assay in rats for release of LH and FSH; set-up: species or system rat
Experimental: In vivo rat assay performed by a modification of the method of Bowers, C. Y. et al. Endocrinology, 106, 674 (1980). 21 day old female rats were injected sc with saline or peptide. Blood samples for the RIAs of LH and FSH were collected at +15, +60, +120, or +180 minutes. (Tables VI-XI).

[2] = system: pituitary cells from 21 day old rats; assay: In vitro pituitary incubate assay (release of LH and FSH); type: cell-based, rat; settings: for FSH ng/ml medium ± SEM / LH ng/ml medium ± SEM: Table V, mean of 9
Experimental: The data in Tables IV and V are from the in vitro assay of the peptides with the pituitary incubate. This assay measures the release of LH and FSH in an in vitro system with pituitary cells from 21 day old rats. See, Bowers, C. Y. et al. on the inhibitory effects of leutinizing hormone releasing hormone analogs. Endocrinology, 106: 674 (1980).
The abbreviations are as follows: sc-subcutaneous, SEM-standard error of the mean; NS-not significant; ng-nanogram, and ml-milliliter. The p value represents the population coefficient .rho.(rho) which signifies whether a sample coefficient is significant or a chance deviation from zero.

[3] = Table XI, 150 ng sc, +2 hrs, mean 5-6
[4] = Table XI, 150 ng sc, +3 hrs, mean 5-6

SMILES: CC(C)C[C@H](NC(=O)[C@@H](Cc1c[nH]c2ccccc12)NC(=O)[C@H](Cc1ccc(O)cc1)NC(=O)[C@H](CO)NC(=O)[C@H](Cc1c[nH]c2ccccc12)NC(=O)[C@H](Cc1c[nH]cn1)NC(=O)[C@@H]1CCC(=O)N1)C(=O)N[C@@H](CCCNC(=N)N)C(=O)N1CCC[C@H]1C(=O)NCC(N)=O [D-Trp^6 -LHRH, pyroGlu--His--Trp--Ser--Tyr--D-Trp--Leu--Arg--Pro--Gly--NH2]
- clinical effect in patients with urinary obstruction ([1]; daily doses (so in the source)): noticeable clinical improvement
- pain from bone metastases in patients with more advanced prostatic disease ([1]; daily doses of 100 g and 50 g, respectively (so in the source)): relieved
- Leydig cell function (men): suppression of Leydig cell function
- serum levels of testosterone, dihydrotestosterone and estradiol (men): decreases
- LH ng/ml Serum ± SEM ± 60 min (21 day old female rats; Table VII, dosage 10 mg/rat sc (so in the source)): 31 ± 6 ng/mL
- LH ng/ml Serum ± SEM ± 15 min (21 day old female rats; Table VII, dosage 100 mg/rat sc (so in the source), ± 15 min): 51 ± 10 ng/mL
- LH ng/ml Serum ± SEM ± 60 min (21 day old female rats; Table VII, dosage 100 mg/rat sc (so in the source)): 259 ± 34 ng/mL
- +2 hrs LH ± SEM ng/ml serum (21 day old female rats; [3]): 230 ± 41 ng/mL
- FSH ± SEM ng/ml serum (+2 hrs) (21 day old female rats; [3]): 2332 ± 388 ng/mL
- +3 hrs LH ± SEM ng/ml serum (21 day old female rats; [4]): 117 ± 9 ng/mL
- FSH ± SEM ng/ml serum (+3 hrs) (21 day old female rats; [4]): 2065 ± 151 ng/mL
- FSH ng/ml medium ± SEM ([2]; dosage .01 ng/ml medium): 450 ± 64 ng/mL
- LH ng/ml medium ± SEM ([2]; dosage .01 ng/ml medium): 68 ± 31 ng/mL
- FSH ng/ml medium ± SEM ([2]; dosage .03 ng/ml medium): 929 ± 207 ng/mL
- LH ng/ml medium ± SEM ([2]; dosage .03 ng/ml medium): 209 ± 74 ng/mL
- FSH ng/ml medium ± SEM ([2]; dosage .10 ng/ml medium): 1714 ± 224 ng/mL
- LH ng/ml medium ± SEM ([2]; dosage .10 ng/ml medium): 646 ± 69 ng/mL
- potency, D-Qal^6 -LHRH compared with D-Trp^6 -LHRH ([2]; comparable assays, statement in words): essentially equipotent
